ChEMBL document CHEMBL3120096 (J Med Chem, 2014)
Converted amounts (≈) assume the structure as drawn.

Legend:
[1] = Oral bioavailability in cynomolgus monkey at 1 to 20 mg/kg; format: ADME, organism-based, Macaca fascicularis; settings: in vivo
Homo sapiens = organism: Homo sapiens; assay: Selectivity ratio of Ki for JAK2 (unknown origin) to Ki for LRRK2 (unknown origin)
Mus musculus = assay: In vivo inhibition of human LRRK2 G2019S Parkinson's disease mutant expressed in BAC mouse assessed as inhibition of autophosphorylation at Ser1292 in brain at 10 to 50 mg/kg, ip after 1 to 6 hrs; format: functional, organism-based; design: dose 10-50 mg/kg, route intraperitoneal
Rattus norvegicus = assay: Unbound clearance in Sprague-Dawley rat at 1 mg/kg, po and 0.5 mg/kg, iv; format: ADME, organism-based; settings: in vivo
[2] = Clearance in Sprague-Dawley rat at 1 mg/kg, po and 0.5 mg/kg, iv; format: ADME, organism-based; settings: in vivo
Cytochrome P450 2B6 = target: T1, Cytochrome P450 2B6 (Homo sapiens, UniProt P20813); assay: Induction of CYP2B6 in human hepatocytes; format: ADME, cell-based, Hepatocyte
T1 sequence (P20813 whole entry): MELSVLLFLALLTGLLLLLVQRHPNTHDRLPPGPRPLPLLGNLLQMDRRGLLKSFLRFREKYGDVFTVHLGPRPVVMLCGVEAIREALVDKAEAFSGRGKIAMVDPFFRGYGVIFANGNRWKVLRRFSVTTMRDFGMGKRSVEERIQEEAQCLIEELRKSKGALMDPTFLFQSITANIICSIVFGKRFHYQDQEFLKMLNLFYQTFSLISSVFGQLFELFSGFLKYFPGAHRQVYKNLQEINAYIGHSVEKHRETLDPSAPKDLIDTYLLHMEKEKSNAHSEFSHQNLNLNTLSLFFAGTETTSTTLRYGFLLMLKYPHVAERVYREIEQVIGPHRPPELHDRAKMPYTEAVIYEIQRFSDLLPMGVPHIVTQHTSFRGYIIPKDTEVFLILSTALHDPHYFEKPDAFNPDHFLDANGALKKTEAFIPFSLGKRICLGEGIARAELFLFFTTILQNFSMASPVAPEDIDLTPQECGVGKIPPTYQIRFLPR

Cytochrome P450 3A4 = Cytochrome P450 3A4 (Homo sapiens, UniProt P08684); assay: Induction of CYP3A4 in human hepatocytes; format: ADME, cell-based, Hepatocyte
[3] = Ratio of unbound drug level in brain to plasma in Sprague-Dawley rat; format: ADME, organism-based
[4] = target: Aurora kinase B (Homo sapiens) (UniProt Q96GD4); assay: Inhibition of aurora-B (unknown origin) at 0.1 uM relative to control
[5] = target: Ribosomal protein S6 kinase alpha-6 (Homo sapiens) (UniProt Q9UK32); assay: Inhibition of RSK4 (unknown origin) at 0.1 uM relative to control
Hepatocyte = assay: Drug metabolism in human hepatocytes assessed as glucuronidated parent compound level after 3 hrs; format: ADME, cell-based
[6] = Half life in cynomolgus monkey at 0.5 mg/kg, iv; format: ADME, organism-based, Macaca fascicularis; design: dose 0.5 mg/kg, route intravenous; settings: in vivo
[7] = Plasma protein binding in cynomolgus monkey at 5 uM after 4 hrs by equilibrium dialysis technique; format: ADME, cell-free, Macaca fascicularis; settings: read-out: PPB (converted)
Cytochrome P450 1A2 [8] = target: T2, Cytochrome P450 1A2 (Homo sapiens, UniProt P05177); assay: Reversible inhibition of CYP1A2 in human liver microsomes using phenacetin as substrate by mass spectrophotometric analysis; format: ADME
T2 sequence (P05177 whole entry): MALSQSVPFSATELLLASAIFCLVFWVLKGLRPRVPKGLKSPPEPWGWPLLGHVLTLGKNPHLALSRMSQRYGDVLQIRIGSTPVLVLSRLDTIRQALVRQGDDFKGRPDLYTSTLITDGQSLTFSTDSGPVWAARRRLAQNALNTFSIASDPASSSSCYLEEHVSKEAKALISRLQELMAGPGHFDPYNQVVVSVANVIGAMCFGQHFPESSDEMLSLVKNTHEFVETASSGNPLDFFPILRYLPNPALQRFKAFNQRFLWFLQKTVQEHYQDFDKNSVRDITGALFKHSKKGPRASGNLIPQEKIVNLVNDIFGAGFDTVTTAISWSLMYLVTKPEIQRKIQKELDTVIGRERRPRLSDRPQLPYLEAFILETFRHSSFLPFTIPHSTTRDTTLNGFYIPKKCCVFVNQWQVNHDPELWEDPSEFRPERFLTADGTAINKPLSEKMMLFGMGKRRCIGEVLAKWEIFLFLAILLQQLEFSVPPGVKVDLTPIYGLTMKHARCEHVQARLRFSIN

[9] = Clearance in cynomolgus monkey at 1 mg/kg, po and 0.5 mg/kg, iv; format: ADME, organism-based, Macaca fascicularis; settings: in vivo
[10] = Clearance in human hepatocytes at 1 uM by LC-MS/MS analysis; format: ADME, cell-based, Hepatocyte
[11] = target: T3, Dual specificity protein kinase TTK (Homo sapiens, UniProt P33981); assay: Inhibition of TTK (unknown origin)
T3 sequence (P33981 whole entry): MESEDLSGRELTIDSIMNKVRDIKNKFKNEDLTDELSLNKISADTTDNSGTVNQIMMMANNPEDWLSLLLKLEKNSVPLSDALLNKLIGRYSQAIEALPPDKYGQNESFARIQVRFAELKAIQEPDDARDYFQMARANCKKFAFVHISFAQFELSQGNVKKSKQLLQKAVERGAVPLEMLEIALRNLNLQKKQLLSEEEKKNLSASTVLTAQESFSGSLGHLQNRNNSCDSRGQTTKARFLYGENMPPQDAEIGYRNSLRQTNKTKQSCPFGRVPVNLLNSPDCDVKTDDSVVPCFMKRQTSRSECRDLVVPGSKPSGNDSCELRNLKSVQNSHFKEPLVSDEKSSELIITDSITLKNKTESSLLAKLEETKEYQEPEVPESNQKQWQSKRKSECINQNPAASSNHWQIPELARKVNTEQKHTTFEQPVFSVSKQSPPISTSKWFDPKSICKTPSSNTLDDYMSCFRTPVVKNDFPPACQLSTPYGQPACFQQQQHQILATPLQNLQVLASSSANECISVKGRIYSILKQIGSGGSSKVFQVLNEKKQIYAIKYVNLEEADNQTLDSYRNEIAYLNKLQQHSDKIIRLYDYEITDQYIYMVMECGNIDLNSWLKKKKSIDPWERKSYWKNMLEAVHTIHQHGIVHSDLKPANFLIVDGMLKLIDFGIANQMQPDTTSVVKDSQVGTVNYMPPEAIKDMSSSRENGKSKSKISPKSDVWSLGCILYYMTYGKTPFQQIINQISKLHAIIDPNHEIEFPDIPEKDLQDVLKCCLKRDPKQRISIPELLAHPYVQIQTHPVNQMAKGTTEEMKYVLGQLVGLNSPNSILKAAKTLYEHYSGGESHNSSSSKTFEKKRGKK

[12] = Thermodynamic solubility of the crystalline form of compound at pH 7.4; format: physicochemical; settings: read-out: Therm_solubility
[13] = Oral bioavailability in Sprague-Dawley rat at 50 mg/kg; format: ADME, organism-based; settings: in vivo
[14] = Oral bioavailability in cynomolgus monkey at 1 mg/kg; format: ADME, organism-based, Macaca fascicularis; settings: in vivo
Liver microsome = assay: Drug metabolism in human liver microsomes assessed as glucuronidated parent compound level after 3 hrs; format: ADME
[15] = target: Ribosomal protein S6 kinase alpha-3 (Homo sapiens) (UniProt P51812); assay: Inhibition of RSK2 (unknown origin) at 0.1 uM relative to control
Cynomolgus monkey = assay: Unbound clearance in cynomolgus monkey at 1 mg/kg, po and 0.5 mg/kg, iv; format: ADME, organism-based, Macaca fascicularis; settings: in vivo
[16] = target: Ribosomal protein S6 kinase alpha-2 (Homo sapiens) (UniProt Q15349); assay: Inhibition of RSK3 (unknown origin) at 0.1 uM relative to control
Cytochrome P450 1A2 [17] = target: T2, Cytochrome P450 1A2; assay: Induction of CYP1A2 in human hepatocytes; format: ADME, cell-based, Hepatocyte
[18] = target: T4, Leucine-rich repeat serine/threonine-protein kinase 2 (Homo sapiens, UniProt Q5S007); assay: Inhibition of LRRK2 (unknown origin)
[19] = target: T4, Leucine-rich repeat serine/threonine-protein kinase 2; assay: Inhibition of LRRK2 (unknown origin) phosphorylation by cell-based assay
[20] = Clearance in rat hepatocytes at 1 uM by LC-MS/MS analysis; format: ADME, cell-based, Hepatocyte

T4 sequence (Q5S007 whole entry): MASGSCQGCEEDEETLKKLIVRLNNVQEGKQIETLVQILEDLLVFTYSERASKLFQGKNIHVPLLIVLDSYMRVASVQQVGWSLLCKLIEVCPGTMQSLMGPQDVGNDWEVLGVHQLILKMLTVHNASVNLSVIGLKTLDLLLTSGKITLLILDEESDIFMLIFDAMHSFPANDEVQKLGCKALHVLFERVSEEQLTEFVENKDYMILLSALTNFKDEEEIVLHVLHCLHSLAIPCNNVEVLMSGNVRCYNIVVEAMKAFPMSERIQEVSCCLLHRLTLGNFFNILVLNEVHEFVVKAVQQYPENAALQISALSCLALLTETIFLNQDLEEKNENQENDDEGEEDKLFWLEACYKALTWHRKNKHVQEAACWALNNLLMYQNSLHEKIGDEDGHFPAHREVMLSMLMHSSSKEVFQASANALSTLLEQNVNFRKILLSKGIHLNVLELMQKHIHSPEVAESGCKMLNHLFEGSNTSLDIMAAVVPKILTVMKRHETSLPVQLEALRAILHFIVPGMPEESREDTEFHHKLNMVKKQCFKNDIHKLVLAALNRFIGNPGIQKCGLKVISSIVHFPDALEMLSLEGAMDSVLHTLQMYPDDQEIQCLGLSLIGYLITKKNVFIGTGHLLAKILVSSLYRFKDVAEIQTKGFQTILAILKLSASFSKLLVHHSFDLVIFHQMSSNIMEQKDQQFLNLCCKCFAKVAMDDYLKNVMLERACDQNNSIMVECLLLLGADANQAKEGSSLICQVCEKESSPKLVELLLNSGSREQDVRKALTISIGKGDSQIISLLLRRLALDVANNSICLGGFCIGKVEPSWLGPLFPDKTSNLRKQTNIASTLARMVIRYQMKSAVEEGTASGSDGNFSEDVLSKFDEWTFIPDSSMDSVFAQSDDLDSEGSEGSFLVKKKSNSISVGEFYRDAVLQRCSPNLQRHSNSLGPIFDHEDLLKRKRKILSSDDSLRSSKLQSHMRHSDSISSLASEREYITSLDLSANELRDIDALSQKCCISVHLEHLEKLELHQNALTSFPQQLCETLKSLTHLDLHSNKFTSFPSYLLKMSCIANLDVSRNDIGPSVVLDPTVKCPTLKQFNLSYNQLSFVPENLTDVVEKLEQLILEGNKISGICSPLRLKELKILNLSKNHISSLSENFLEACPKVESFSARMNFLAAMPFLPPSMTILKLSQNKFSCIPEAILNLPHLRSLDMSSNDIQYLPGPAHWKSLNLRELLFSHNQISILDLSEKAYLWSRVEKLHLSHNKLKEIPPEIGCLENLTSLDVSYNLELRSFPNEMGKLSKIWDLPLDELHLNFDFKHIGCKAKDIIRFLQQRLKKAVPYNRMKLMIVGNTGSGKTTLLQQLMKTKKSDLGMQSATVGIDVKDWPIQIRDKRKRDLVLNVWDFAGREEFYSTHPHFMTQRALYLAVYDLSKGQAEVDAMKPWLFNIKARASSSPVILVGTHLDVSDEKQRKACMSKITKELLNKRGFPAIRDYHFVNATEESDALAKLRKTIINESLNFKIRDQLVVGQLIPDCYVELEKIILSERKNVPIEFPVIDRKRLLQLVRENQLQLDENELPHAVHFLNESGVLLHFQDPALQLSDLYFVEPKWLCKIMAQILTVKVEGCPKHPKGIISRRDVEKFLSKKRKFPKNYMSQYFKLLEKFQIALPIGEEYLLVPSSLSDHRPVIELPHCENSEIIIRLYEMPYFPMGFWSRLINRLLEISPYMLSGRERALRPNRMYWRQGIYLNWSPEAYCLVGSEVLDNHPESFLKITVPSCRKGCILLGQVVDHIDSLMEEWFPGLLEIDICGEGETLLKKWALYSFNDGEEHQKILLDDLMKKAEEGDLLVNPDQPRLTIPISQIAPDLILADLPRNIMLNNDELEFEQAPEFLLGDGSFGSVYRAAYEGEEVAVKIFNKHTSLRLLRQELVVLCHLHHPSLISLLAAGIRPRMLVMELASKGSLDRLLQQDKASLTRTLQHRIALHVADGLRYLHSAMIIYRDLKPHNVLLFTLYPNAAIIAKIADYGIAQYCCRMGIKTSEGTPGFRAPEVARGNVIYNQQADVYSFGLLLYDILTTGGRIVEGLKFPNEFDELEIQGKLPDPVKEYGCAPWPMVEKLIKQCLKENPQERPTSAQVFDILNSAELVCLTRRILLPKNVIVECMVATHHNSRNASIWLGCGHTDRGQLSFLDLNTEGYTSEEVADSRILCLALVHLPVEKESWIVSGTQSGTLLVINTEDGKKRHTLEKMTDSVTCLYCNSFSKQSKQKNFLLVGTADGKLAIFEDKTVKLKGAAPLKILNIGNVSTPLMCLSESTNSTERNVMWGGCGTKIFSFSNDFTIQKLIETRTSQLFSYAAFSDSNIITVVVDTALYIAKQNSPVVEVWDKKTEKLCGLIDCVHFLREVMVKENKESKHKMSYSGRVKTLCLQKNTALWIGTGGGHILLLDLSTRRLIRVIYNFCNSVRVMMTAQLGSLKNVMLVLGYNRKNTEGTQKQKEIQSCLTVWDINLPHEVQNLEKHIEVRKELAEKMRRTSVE
Chain of Aurora kinase B (Homo sapiens) (Q96GD4 whole entry): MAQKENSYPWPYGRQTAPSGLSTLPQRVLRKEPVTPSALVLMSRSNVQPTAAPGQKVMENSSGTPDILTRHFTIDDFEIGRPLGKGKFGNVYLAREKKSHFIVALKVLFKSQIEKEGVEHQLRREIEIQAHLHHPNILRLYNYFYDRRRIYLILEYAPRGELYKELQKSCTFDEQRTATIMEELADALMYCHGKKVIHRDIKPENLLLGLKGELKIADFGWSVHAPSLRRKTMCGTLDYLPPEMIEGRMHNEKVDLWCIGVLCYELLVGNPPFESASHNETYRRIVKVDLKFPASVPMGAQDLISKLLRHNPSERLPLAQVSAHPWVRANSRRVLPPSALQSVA
Chain of Ribosomal protein S6 kinase alpha-2 (Homo sapiens) (Q15349 whole entry): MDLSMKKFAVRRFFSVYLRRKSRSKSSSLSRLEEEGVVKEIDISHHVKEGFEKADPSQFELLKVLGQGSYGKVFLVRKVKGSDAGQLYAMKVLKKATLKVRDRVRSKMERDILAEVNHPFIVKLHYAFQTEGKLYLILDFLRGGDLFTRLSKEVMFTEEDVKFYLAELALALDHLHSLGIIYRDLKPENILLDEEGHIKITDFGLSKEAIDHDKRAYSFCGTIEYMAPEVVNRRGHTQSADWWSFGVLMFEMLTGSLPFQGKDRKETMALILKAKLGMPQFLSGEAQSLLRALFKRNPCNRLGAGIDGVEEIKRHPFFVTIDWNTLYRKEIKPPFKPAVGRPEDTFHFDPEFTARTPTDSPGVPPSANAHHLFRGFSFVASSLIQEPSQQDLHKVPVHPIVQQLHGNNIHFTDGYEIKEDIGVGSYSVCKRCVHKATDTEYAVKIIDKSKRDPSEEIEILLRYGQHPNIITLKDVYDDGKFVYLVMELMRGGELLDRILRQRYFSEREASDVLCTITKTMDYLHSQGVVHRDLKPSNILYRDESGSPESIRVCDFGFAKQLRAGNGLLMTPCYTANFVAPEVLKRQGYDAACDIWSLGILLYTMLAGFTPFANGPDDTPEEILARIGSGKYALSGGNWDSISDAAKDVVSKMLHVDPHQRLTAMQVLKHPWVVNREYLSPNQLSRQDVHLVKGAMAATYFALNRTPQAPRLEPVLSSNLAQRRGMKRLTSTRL
Chain of Ribosomal protein S6 kinase alpha-3 (Homo sapiens) (P51812 whole entry): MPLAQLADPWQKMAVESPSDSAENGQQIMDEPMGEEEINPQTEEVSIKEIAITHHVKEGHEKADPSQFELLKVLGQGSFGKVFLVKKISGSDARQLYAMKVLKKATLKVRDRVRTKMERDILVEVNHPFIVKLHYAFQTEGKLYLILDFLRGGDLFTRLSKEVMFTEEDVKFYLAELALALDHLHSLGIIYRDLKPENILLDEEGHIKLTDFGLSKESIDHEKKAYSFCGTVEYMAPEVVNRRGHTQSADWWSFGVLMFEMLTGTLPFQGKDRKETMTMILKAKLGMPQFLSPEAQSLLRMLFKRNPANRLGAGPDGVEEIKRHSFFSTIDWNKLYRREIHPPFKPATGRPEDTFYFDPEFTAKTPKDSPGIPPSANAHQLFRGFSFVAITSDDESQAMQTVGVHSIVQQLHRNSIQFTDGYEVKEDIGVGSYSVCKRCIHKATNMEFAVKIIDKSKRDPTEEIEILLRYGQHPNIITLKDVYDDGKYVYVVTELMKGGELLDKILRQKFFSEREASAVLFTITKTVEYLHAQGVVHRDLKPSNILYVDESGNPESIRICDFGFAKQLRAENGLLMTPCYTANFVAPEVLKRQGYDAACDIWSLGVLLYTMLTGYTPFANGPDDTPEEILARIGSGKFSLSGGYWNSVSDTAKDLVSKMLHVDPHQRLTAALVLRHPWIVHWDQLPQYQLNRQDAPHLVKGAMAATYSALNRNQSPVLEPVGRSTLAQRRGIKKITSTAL
Chain of Cytochrome P450 3A4 (P08684 whole entry): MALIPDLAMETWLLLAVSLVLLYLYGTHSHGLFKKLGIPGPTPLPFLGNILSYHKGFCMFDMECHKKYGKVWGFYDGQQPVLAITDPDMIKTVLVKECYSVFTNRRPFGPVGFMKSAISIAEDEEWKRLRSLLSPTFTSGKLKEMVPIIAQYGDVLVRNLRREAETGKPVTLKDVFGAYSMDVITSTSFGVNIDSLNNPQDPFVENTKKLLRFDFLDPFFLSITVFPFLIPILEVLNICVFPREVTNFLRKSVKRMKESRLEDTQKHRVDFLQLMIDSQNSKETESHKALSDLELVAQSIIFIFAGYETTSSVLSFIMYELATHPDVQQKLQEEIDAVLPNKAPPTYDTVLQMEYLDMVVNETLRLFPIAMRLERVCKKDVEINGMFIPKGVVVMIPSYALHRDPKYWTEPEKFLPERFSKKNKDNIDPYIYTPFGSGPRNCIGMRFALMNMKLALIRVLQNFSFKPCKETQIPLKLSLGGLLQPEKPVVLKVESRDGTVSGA

CNc1nc(Nc2cnn(CC(C)(C)O)c2Cl)ncc1C(F)(F)F
bioavailability [1]: 5% | Ratio Ki (Homo sapiens): > 150

CNc1nc(Nc2cn(C(C)(C)C#N)nc2C)ncc1C(F)(F)F [DNL-201]
IC50 (Mus musculus): 3 nM | inhibition (Mus musculus): Dose-dependent effect | CL free (Rattus norvegicus): 210 mL/min/kg | clearance [2]: 44 mL/min/kg | Activity (Cytochrome P450 2B6): Active | Activity (Cytochrome P450 3A4): Active | Kp uu [3]: 0.6 | inhibition [4]: 51% | inhibition [5]: 62% | Drug metabolism (Hepatocyte): Not Active | half-life [6]: 2.2 h | fraction unbound at 4 h, 5 µM [7]: 0.197 | IC50 (Cytochrome P450 1A2 [8]): 700 nM | clearance [9]: 19.7 mL/min/kg | CLhep predicted at 1 µM [10]: 3 mL/min/kg | Ki [11]: 150 nM | solubility thermodynamic [12]: 100 µg/mL (≈ 295 µM) | bioavailability [13]: 88% | bioavailability [14]: 35% | Drug metabolism (Liver microsome): Not Active | inhibition [15]: 52% | CL free (Cynomolgus monkey): 100 mL/min/kg | inhibition [16]: 68% | Activity (Cytochrome P450 1A2 [17]): Active | Ki [18]: 0.7 nM | IC50 [19]: 3 nM | CLhep predicted at 1 µM [20]: 25 mL/min/kg
